Columns and labels:
CIITA [1] = experiment: NGS editing and frameshift edit of CIITA in CD3+ primary human T cells (RNP); assay type: cell-based; details: dgRNA targeting CIITA delivered as RNP to CD3+ T cells
Text: The frequency of insertions or deletions is indicated (% indels) and the percentage of these edits that result in frameshifting of the coding sequence is shown (% frameshift edits).
PBMC were isolated from human blood (Hemacare) by using centrifugation method using Ficoll. […] These cells were aliquoted and frozen. These frozen cell aliquots were then thawed and activated using CD3/CD28 beads (DynaBeads Invitrogen Cat #111.41D) at bead to cell ratio of 3:1. On day 2 or day 3 after bead activation, 200,000 cells were removed from culture for electroporation. […] Next 1 μL of 100 μM crRNA was added, mixed and incubated for 10 min at 37° C. If more than one RNP was added during the electroporation step, each RNP with a crRNA targeting a different gene was assembled separately using the above method, then combined together with the addition of Cas9 buffer in order to obtain different RNP final concentrations for different conditions. For “triple editing”, i.e. simultaneous addition of 3 RNPs targeting different genes, details of RNP quantities are provided in the figures. The assembled RNPs were then mixed with 200,000 cells in 10 ul of T Buffer (neon transfection system 10 ul Kit). Electroporation was performed by Neon electroporator using Neon® Transfection System 10 μL Kit (MPK1096) at 1600V, 10 ms, 3 pulses. […] To evaluate the editing frequency and sequence changes resulting from gene editing in the above prepared T cells, genomic DNA was isolated and subjected to sequencing. Briefly, frozen cell pellets were thawed and processed using DNeasy Blood & Tissue Kit (Qiagen, 69506) to isolate genomic DNA. Eluted DNA was used to run PCR using Titanium Taq PCR kit (Clontech Laboratories, 639211) and primers in Table 27.
PCR product was purified using QIAquick PCR Purification Kit (Qiagen, 28104). […] PCR amplicons were subjected to standard Nextera NGS library prep (Illumina) and sequenced with paired-end reads on an Illumina MiSeq sequencer.

CIITA [2] = experiment: NGS editing and frameshift edit of CIITA by dgRNA in HEK293 cells expressing Cas9; assay type: cell-based, human; details: HEK293 cells stably expressing Cas9, dgRNA to CIITA; for Avg. % Edit: N = 3; for Avg. % FS: frameshift edit
Experimental: Editing of CIITA with dgRNAs targeted to the CIITA gene were assayed in HEK293 cells engineered to express Cas9, as described above in Example 1.

TRAC locus = experiment: Genomic editing of the TRAC locus in primary human CD3+ T cells by RNP electroporation (NGS: % indels, % frameshift edits, indel pattern); assay type: cell-based; details: dgRNA/Cas9 RNP by electroporation, target TRAC; for mean FS edit (%): frameshift edits in primary human CD3+ T cells; for mean total % edit: primary human CD3+ T cells, mean of at least 3 experiments;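 as to all read-outs here: total edit is the insertion or deletion frequency at TRAC, and the frameshift value is the share of those indels that shift the coding frame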
Text: (§1) FIG. 12: Mean (n≥3) editing of CRISPR systems with dgRNAs as indicated to TRAC in HEK cells (stably expressing Cas9) or primary human CD3+ T cells (delivery of dgRNA:Cas9 RNP by electroporation).
FIG. 33C: Genomic editing of the TRAC locus resulting from human primary T cell electroporation with RNP containing the indicated gRNA targeting the TRAC locus is shown. The frequency of insertions or deletions is indicated (% indels) and the percentage of these edits that result in frameshifting of the coding sequence is shown (% frameshift edits).
Data for each experiment are the average from triplicate PCR products.

TRAC = experiment: Editing of TRAC by dgRNAs in HEK cells stably expressing Cas9 (NGS); assay type: cell-based, human; details: dgRNA delivered to HEK cells stably expressing Cas9, target TRAC, mean of at least 3 experiments
Text: as §1

| Substance | Editing % (CIITA [1]) [%] | Frameshift Edit % (CIITA [1]) [%] | Avg. % Edit (CIITA [2]) [%] | Avg. % FS (CIITA [2]) [%] | mean FS edit (%) (TRAC locus) | mean total % edit (TRAC locus) [%] | mean % edit (TRAC) [%] |
| --- | --- | --- | --- | --- | --- | --- | --- |
| CR002976 (guide AUAGAAGUGGUAGAGGCACA; chemistry not given here; listed as Homo sapiens) | 4.0 | 3.6 | 45.36 | 37.66 | – | – | – |
| CR002978 (guide UCUGGUCAUAGAAGUGGUAG; chemistry not given here; listed as Homo sapiens) | 4.7 | 2.7 | 38.34 | 34.11 | – | – | – |
| CR002980 (guide GGUCCAUCUGGUCAUAGAAG; chemistry not given here; listed as Homo sapiens) | 6.1 | 3.6 | 50.30 | 42.41 | – | – | – |
| CR002992 (guide UGGAAGGUGAUGAAGAGACC; chemistry not given here; listed as Homo sapiens) | 16.0 | 11.6 | 46.54 | 31.23 | – | – | – |
| CR002993: dgRNA targeting domain to CIITA (guide GGAAGGUGAUGAAGAGACCA; chemistry not given here; listed as Homo sapiens) | 33.8 | 27.2 | 60.16 | 48.86 | – | – | – |
| CR002994 (guide AGGUGAUGAAGAGACCAGGG; chemistry not given here; listed as Homo sapiens) | 22.0 | 18.1 | 42.35 | 31.32 | – | – | – |
| CR002995 (guide GAUAUUGGCAUAAGCCUCCC; chemistry not given here; listed as Homo sapiens) | 3.1 | 2.5 | 52.74 | 43.64 | – | – | – |
| CR003001 (guide UUCCAGGACUCCCAGCUGGA; chemistry not given here; listed as Homo sapiens) | 36.3 | 32.0 | 47.64 | 43.30 | – | – | – |
| CR003007: dgRNA targeting domain to CIITA (guide AUAGGACCAGAUGAAGUGAU; chemistry not given here; listed as Homo sapiens) | 31.6 | 28.8 | 43.64 | 32.22 | – | – | – |
| CR003013 (guide UGCCGGAAGCUCCUCUGGGA; chemistry not given here; listed as Homo sapiens) | 11.5 | 9.0 | 37.75 | 29.94 | – | – | – |
| CUGGGGAAGAAGGUGUCUUC (chemistry not given here; listed as Homo sapiens) [CR000973] | – | – | – | – | 12.4 | 16.2 | 39.7 |
| CUUCAAGAGCAACAGUGCUG (chemistry not given here; listed as Homo sapiens) [CR000969] | – | – | – | – | 20.9 | 24.8 | 34.0 |
| GAGAAUCAAAAUCGGUGAAU (chemistry not given here; listed as Homo sapiens) [CR000964] | – | – | – | – | 23.5 | 27.0 | 51.2 |
| GAGGCUUCUCACCCUGCAGC (chemistry not given here; listed as Homo sapiens) [CR000922] | – | – | – | – | 5.0 | 6.4 | 37.8 |
| GAGUUCCCUCUGUUUGGAGA (chemistry not given here; listed as Homo sapiens) [CR001004] | – | – | – | – | 6.4 | 6.7 | 47.2 |
| GCAAUGCAGAGGAAGGAGCG (chemistry not given here; listed as Homo sapiens) [CR000998] | – | – | – | – | 2.2 | 2.4 | 4.3 |
| GCAGCAGGGACCUGUGAGCA (chemistry not given here; listed as Homo sapiens) [CR000926] | – | – | – | – | 19.9 | 22.5 | 73.0 |
| GCAUUGCCGGGGGGGCACAG (chemistry not given here; listed as Homo sapiens) [CR001014] | – | – | – | – | 24.3 | 27.3 | 52.7 |
| GCUGUAUGUGUGAGUUGGUG (chemistry not given here; listed as Homo sapiens) [CR000948] | – | – | – | – | 18.4 | 20.3 | 84.5 |

Source: patent US12037583B2, “Compositions and methods for immunooncology” (Novartis AG, priority 2015, dated 2024)
